Values belong to the compound of their own block, whether it stands above or below them.
How the values were obtained:
A594 cells = assay: CellROX-based detection of ROS levels; assay type: cell-based; settings: 48 h treatment (compound 2 7.8 μM, N-acetyl-cysteine 300 μM), then 200 μM tert-butyl hydroperoxide 2 h; compared to compound 3 10 μM
Protocol: A594 cells were maintained in Fluorobrite DMEM (Thermo Fisher Scientific) supplemented with GlutaMAX (Thermo Fisher Scientific) and 10% fetal bovine serum (PAN Biotech). Cells were seeded onto a 24-well microplate (Ibidi) and treated with DMSO, 7.8 μM compound 2 (3x EC50), 10 μM compound 3, or 300 μM N-acetyl-cysteine for 48 h. After the treatment, cells were incubated with 200 μM tert-butyl hydroperoxide (Sigma) for 2 h to stimulate ROS production. Then, cells were stained with CellROX deep red (Thermo Fisher Scientific) following the manufacturer’s guidelines. CellROX deep red signal was measured on a Leica DMI 6000 B epifluorescent microscope with a Cy5 filter set. Mean signal intensity per cell was determined from >100 cells per condition from three independent treatments.
For the CellROX assay, three independent treatments were conducted. From each, the mean signal intensity per cell was determined for >100 cells per condition. The statistical significance was calculated by one-way ANOVA followed by a post hoc Tukey’s multiple comparisons test using GraphPad Prism (v.8.3.0).

Arginase = target: T1, Arginase (Mus musculus, UniProt Q61176); assay: Arginase activity assay (Arginase Activity Assay Kit) in cell lysates; assay type: biochemical; settings: NUP-MDSC lysates; titrated amounts of inhibitor
T1 construct: endogenous in cells; host or cells: mouse NUP cells / NUP-MDSC (lysate)
T1 sequence (Q61176 1-323): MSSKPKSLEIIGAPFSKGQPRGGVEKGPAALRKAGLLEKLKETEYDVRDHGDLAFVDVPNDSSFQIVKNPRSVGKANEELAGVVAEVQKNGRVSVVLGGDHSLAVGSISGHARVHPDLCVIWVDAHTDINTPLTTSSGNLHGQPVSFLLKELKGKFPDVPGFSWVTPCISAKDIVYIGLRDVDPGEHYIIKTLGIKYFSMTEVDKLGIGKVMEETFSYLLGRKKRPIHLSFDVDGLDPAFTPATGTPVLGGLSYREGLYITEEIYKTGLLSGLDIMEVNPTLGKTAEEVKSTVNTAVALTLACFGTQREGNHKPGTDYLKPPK
Protocol: Arginase catalyzes the conversion of arginine to urea and ornithine. The urea produced specifically reacts with the assay substrate to generate a colored product, proportional to the arginase activity. Cells were washed with PBS and lysed for 10 min in 10 mM Tris–HCl, pH7.4 containing protease inhibitors and 0.4% (w/v) Triton X-100. Lysates were centrifuged at 13,000g for 10 min, and supernatant was used for analysis. Arginase activity was analyzed using the Arginase Activity Assay Kit (Sigma, MAK112) according to manufacturer’s protocol. Lysates were untreated or treated with titrated amounts of the arginase inhibitor (3R,4S)-3-amino-1-[(2S)-2-aminopropanoyl]-4-(3-boronopropyl)pyrrolidine-3-carboxylic acid. Absorbance (430 nm) was analyzed in an Infinite M1000 Pro (Tecan) plate reader after 120 min of incubation. Arginase activity was determined as follows: arginase activity = absorbance-blank/(urea standard-H2O Control)∗(1 mM∗reaction volume ∗10³/(incubation time in min∗sample volume (μL))). One unit of arginase is the amount of enzyme that will convert 1.0 μmole of L-arginine to ornithine and urea per minute at pH 9.5 and 37 °C.

NUP-MDSC = assay: Global proteome expression profiling of compound-treated NUP-MDSC (TMT LC-MS/MS); assay type: cell-based, mouse; settings: 72 h; for log2 FC Moce_300/DMSO: 300 nM
Protocol: After treatments, medium was removed, cells were washed twice with PBS, and the cell pellets were further subjected to proteomic sample preparation.
The cell pellet was reconstituted in 2% SDS in 50 mM Tris–HCl pH 7.5 and lysed by heating to 95 °C for 10 min. One microliter of 100% TFA was added to each sample to hydrolyze DNA, and the pH was subsequently adjusted to 8.5 with 3 M Tris solution. Disulfide bonds were reduced with 10 mM DTT for 45 min at 37 °C, followed by alkylation of cysteines with 55 mM CAA for 30 min at room temperature. Prior to tryptic digestion, the detergent was removed from lysates by SP3 cleanup on an Agilent BRAVO system (Agilent Technologies), following the protocol first described by Hughes et al. ([34]). Briefly, lysate containing 200 μg of protein was mixed with SP3 beads, and proteins were precipitated onto a 50:50 mixture of Sera-Mag Speed Bead types A and B (Thermo Fisher Scientific) in 58% acetonitrile. Beads were washed three times with 80% ethanol in water and once with acetonitrile. Tryptic digest was performed in 100 μl of digestion buffer (2 mM CaCl2 in 25 mM Hepes, pH 8.5) with a 1:50 enzyme-to-protein ratio. Bead-precipitated proteins were digested at 37 °C overnight. On the next day, the supernatant of each sample was transferred to a new well and vacuum dried.
Dried peptides were reconstituted in water and labeled with the respective TMT10plex-labeling reagent as described previously ([35]) with a protein to tandem mass tag (TMT) reagent ratio of 1:2. Labeled samples were pooled, vacuum dried, and reconstituted in 0.1% formic acid (FA) prior to desalting on SepPAC50 columns (waters corp.). Peptides were fractionated using a Dionex Ultra 3000 HPLC system with a Waters XBridge BEH130 C18 3.5 um 2.1 × 250 mm column as described previously ([36]). Ninety-six fractions were collected and pooled to 48. For the full proteome analysis, one fifth of each fraction was transferred to a new 96-well plate and both plates were vacuum dried. For the phosphopeptide analysis, dried peptides were reconstituted in 55 μl 0.1% TFA in 30% ACN, pooled from 48 to 12 fractions, and mixed with 70 μl priming buffer (0.1% TFA, 100% ACN). Phosphopeptides were enriched from each of the 12 fractions using Fe(III)-IMAC-NTA cartridges on the AssayMAP BRAVO (Agilent Technologies) platform as described previously ([36]). Phosphopeptides were eluted with 60 μl 1% ammonia, vacuum dried, and stored at −20 °C prior to LC-MS/MS analysis.
The Fusion Lumos was operated in data-dependent acquisition and positive ionization mode. Samples were measured employing a MS3 method. In brief, full scan MS1 spectra were recorded in the orbitrap (OT) from 360 to 1560 m/z at 60,000 resolution using an automatic gain control (AGC) target value of 4e5 charges and a maximum injection time (maxIT) of 50 ms. Iontrap-MS2 spectra for peptide identification were acquired using higher energy collision dissociation (HCD) fragmentation with 32% normalized collision energy (NCE), an isolation window of 0.6 m/z, and an AGC target value of 1.2e4 charges. To obtain quantitative information on TMT reporter ions, each peptide precursor was fragmented again as for MS2 analysis followed by synchronous selection of the up to eight most intense peptide fragments in the iontrap ([37]) and further fragmentation via HCD using a NCE of 55%. The MS3 scan was recorded in the OT at 50,000 resolution (scan range 100–1000 m/z, isolation window of 1.2 m/z, AGC of 1e5 charges, maxIT of 86 ms). The cycle time was 1.2 s, and the dynamic exclusion lasted for 50 s.
Peptide, protein, and phosphorylation site identification and quantification were performed with MaxQuant software (v. 1.6.3.3, https://www.maxquant.org/) with standard settings for reporter ion MS3 unless described otherwise ([39]). Isotope impurities of the TMT lot were specified to allow MaxQuant the automated correction of TMT intensities. […]

NUP-MDSC cell lysate [1] = target: T2, NUP-MDSC cell lysate (Mus musculus, UniProt G5E8Z3); assay: Chemoproteomic competition pulldown assay (iCor/iEnt affinity matrix), proteome-wide; assay type: binding; settings: protein 2310050C09Rik (G5E8Z3)
T2 construct: endogenous in cells; host or cells: mouse NUP-MDSC (lysate)
T2 sequence (G5E8Z3 1-280): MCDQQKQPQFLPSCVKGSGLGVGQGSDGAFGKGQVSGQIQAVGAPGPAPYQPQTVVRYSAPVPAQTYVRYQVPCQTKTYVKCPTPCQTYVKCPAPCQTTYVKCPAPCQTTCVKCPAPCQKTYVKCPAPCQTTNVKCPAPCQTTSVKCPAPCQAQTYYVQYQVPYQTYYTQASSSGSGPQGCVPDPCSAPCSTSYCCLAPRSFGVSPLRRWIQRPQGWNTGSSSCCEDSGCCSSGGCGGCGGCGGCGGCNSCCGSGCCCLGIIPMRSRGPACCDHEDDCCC
Excerpt: (§1) Targets of the inhibitors were annotated manually.

NUP-MDSC cell lysate [2] = target: T3, NUP-MDSC cell lysate (Mus musculus, UniProt Q8WUR0); assay: as above; assay type: binding; settings: protein 1600014C10Rik (Protein C19orf12 homolog)
T3 construct: endogenous in cells; host or cells: mouse NUP-MDSC (lysate)
T3 sequence (Q8WUR0 1-141): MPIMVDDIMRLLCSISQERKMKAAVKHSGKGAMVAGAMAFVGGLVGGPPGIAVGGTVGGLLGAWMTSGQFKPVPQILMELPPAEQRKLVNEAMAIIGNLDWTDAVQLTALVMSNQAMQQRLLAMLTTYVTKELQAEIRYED
Excerpt: as §1

Structure (SMILES): CC(=O)N[C@@H](CS)C(=O)O [N-acetyl-cysteine]
CellROX Deep Red fluorescence (amount of ROS in a cell) (A594 cells): decreased significantly

arginase activity (Arginase): dose dependently decreased
Structure (SMILES): C[C@H](N)C(=O)N1C[C@H](CCCB(O)O)[C@](N)(C(=O)O)C1 [arginase inhibitor, (3R,4S)-3-amino-1-[(2S)-2-aminopropanoyl]-4-(3-boronopropyl)pyrrolidine-3-carboxylic acid]

Intensity 10nM (NUP-MDSC cell lysate [1]; Mocetinostat 10nM): 25441000
LFQ intensity 10nM (NUP-MDSC cell lysate [1]; Mocetinostat 10nM): 9384100
Intensity 30nM (NUP-MDSC cell lysate [1]; Mocetinostat 30nM): 13403000
LFQ intensity 30nM (NUP-MDSC cell lysate [1]; Mocetinostat 30nM): 6282200
Intensity 100nM (NUP-MDSC cell lysate [1]; Mocetinostat 100nM): 19942000
LFQ intensity 100nM (NUP-MDSC cell lysate [1]; Mocetinostat 100nM): 8726600
Intensity 300nM (NUP-MDSC cell lysate [1]; Mocetinostat 300nM): 13729000
LFQ intensity 300nM (NUP-MDSC cell lysate [1]; Mocetinostat 300nM): 7913100
Intensity 1000nM (NUP-MDSC cell lysate [1]; Mocetinostat 1000nM): 4275900
LFQ intensity 1000nM (NUP-MDSC cell lysate [1]; Mocetinostat 1000nM): 0
Intensity 3000nM (NUP-MDSC cell lysate [1]; Mocetinostat 3000nM): 53551000
LFQ intensity 3000nM (NUP-MDSC cell lysate [1]; Mocetinostat 3000nM): 32269000
Intensity 30000nM (NUP-MDSC cell lysate [1]; Mocetinostat 30000nM): 25441000
LFQ intensity 30000nM (NUP-MDSC cell lysate [1]; Mocetinostat 30000nM): 13756000
Intensity 10nM (NUP-MDSC cell lysate [2]; Mocetinostat 10nM): 53804000
LFQ intensity 10nM (NUP-MDSC cell lysate [2]; Mocetinostat 10nM): 30216000
Intensity 30nM (NUP-MDSC cell lysate [2]; Mocetinostat 30nM): 64537000
LFQ intensity 30nM (NUP-MDSC cell lysate [2]; Mocetinostat 30nM): 37744000
Intensity 100nM (NUP-MDSC cell lysate [2]; Mocetinostat 100nM): 59266000
LFQ intensity 100nM (NUP-MDSC cell lysate [2]; Mocetinostat 100nM): 38158000
Intensity 300nM (NUP-MDSC cell lysate [2]; Mocetinostat 300nM): 53823000
LFQ intensity 300nM (NUP-MDSC cell lysate [2]; Mocetinostat 300nM): 43828000
Intensity 1000nM (NUP-MDSC cell lysate [2]; Mocetinostat 1000nM): 51502000
LFQ intensity 1000nM (NUP-MDSC cell lysate [2]; Mocetinostat 1000nM): 40150000
Intensity 3000nM (NUP-MDSC cell lysate [2]; Mocetinostat 3000nM): 76226000
LFQ intensity 3000nM (NUP-MDSC cell lysate [2]; Mocetinostat 3000nM): 38853000
Intensity 30000nM (NUP-MDSC cell lysate [2]; Mocetinostat 30000nM): 39641000
LFQ intensity 30000nM (NUP-MDSC cell lysate [2]; Mocetinostat 30000nM): 39494000
Structure (SMILES): Nc1ccccc1NC(=O)c1ccc(CNc2nccc(-c3cccnc3)n2)cc1 [mocetinostat]
protein expression of Il1a, Il1b, and Il1rn (NUP-MDSC; 30 and 300 nM): dose-dependently upregulated
protein level of Cxcr3, Ccl9, and Ccr5 (NUP-MDSC; 30 and 300 nM, dose-dependent manner): increased
log2 FC Moce_300/DMSO (NUP-MDSC; protein Cask): -0.508
log2 FC Moce_300/DMSO (NUP-MDSC; protein Hsf1): -0.2561
log2 FC Moce_300/DMSO (NUP-MDSC; protein Inpp5j): 0.2433
log2 FC Moce_300/DMSO (NUP-MDSC; protein Magohb;Magoh): -0.03048

Reference: paper PMC10518717, “High-Throughput Screening and Proteomic Characterization of Compounds Targeting Myeloid-Derived Suppressor Cells” (Molecular & Cellular Proteomics : MCP, 2023)
